{"source": "patent US12428406B2", "about": "(PMV Pharmaceuticals, Inc., priority 2019, dated 2025)"}
{"target": "T1, p53 Y220C (Homo sapiens, UniProt P04637, Y220C)", "T1 construct": "The recombinant protein was a truncation mutant containing only amino acids 94-312 of p53; made in house; host or cells: E. coli", "T1 sequence (P04637 94-312, change not shown)": "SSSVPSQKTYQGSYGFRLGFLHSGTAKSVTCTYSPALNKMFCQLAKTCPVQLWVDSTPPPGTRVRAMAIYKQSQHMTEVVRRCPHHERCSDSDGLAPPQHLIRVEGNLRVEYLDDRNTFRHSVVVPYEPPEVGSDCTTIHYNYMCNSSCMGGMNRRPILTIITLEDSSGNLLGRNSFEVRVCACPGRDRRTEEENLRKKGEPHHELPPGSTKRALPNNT", "test": "In vitro DNA binding activity assay (HTRF / TR-FRET): stabilization of p53 Y220C and increase of its DNA binding activity", "type": "biochemical", "details": "recombinant His-tagged p53 Y220C DNA binding domain (aa 94-312), biotin-labeled consensus DNA, incubated at 27° C. or 29° C. for 60 min", "procedure,_shortened": "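His-tagged p53 Y220C, E. coli-expressed, binding biotin-labeled consensus DNA measured by HTRF (anti-His-APC, streptavidin-europium). Compounds from 4.5 mM DMSO stocks, 3-fold serial dilutions; incubations at room temperature 15 min, then 20 min. SC150 = concentration raising DNA binding by 50%.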"}
{"smiles": "COc1cc(Cl)ccc1NCC#Cc1cc2c(N[C@H]3CC[C@H](N4CC5(COC5)C4)CC3)cccc2n1CC(F)(F)F", "note": "[Compound 265A, N-((1R,4R)-4-(2-oxa-6-azaspiro[3.3]heptan-6-yl)cyclohexyl)-2-(3-((4-chloro-2-methoxyphenyl)amino)prop-1-yn-1-yl)-1-(2,2,2-trifluoroethyl)-1H-indol-4-amine]", "SC150 (concentration of the compound required to increase the DNA binding activity by 50%)": "+ (+ = 0 μM ≤ SC150 < 0.05 μM)"}
{"smiles": "COc1cc(S(=O)(=O)N(C)C)ccc1NCC#Cc1cc2c(N[C@H]3CC[C@H](N4CC5(COC5)C4)CC3)cccc2n1CC(F)(F)F", "note": "[Compound 267A, 4-((3-(4-(((1R,4R)-4-(2-oxa-6-azaspiro[3.3]heptan-6-yl)cyclo-hexyl)amino)-1-(2,2,2-trifluoroethyl)-1H-indol-2-yl)prop-2-yn-1-yl)amino)-3-methoxy-N,N-dimethylbenzene-sulfonamide]", "SC150 (concentration of the compound required to increase the DNA binding activity by 50%)": "+ (+ = 0 μM ≤ SC150 < 0.05 μM)"}
{"smiles": "CCS(=O)(=O)c1ccc(NCC#Cc2cc3c(N[C@H]4CC[C@H](N5CC6(COC6)C5)CC4)cccc3n2CC(F)(F)F)c(OC)c1", "note": "[Compound 269A, N-((1R,4R)-4-(2-oxa-6-azaspiro[3.3]heptan-6-yl)cyclohexyl)-2-(3-((4-(ethylsulfonyl)-2-methoxyphenyl)amino)prop-1-yn-1-yl)-1-(2,2,2-trifluoroethyl)-1H-indol-4-amine]", "SC150 (concentration of the compound required to increase the DNA binding activity by 50%)": "+ (+ = 0 μM ≤ SC150 < 0.05 μM)"}
{"smiles": "COc1cc(C(N)=O)c(F)cc1NCC#Cc1cc2c(N[C@H]3CC[C@H](N4CC5(COC5)C4)CC3)cccc2n1CC(F)(F)F", "note": "[Compound 273A, 2-fluoro-5-methoxy-4-{[3-(4-{[(1R,4R)-4-{2-oxa-6-azaspiro[3.3]heptan-6-yl}cyclohexyl]amino}-1-(2,2,2-trifluoroethyl)-1H-indol-2-yl)prop-2-yn-1-yl]amino}benzamide]", "SC150 (concentration of the compound required to increase the DNA binding activity by 50%)": "+ (+ = 0 μM ≤ SC150 < 0.05 μM)"}
{"smiles": "CNC(=O)c1cc(OC)c(NCC#Cc2cc3c(N[C@H]4CC[C@H](N5CC6(COC6)C5)CC4)cccc3n2CC(F)(F)F)cc1F", "note": "[Compound 275A, 2-fluoro-5-methoxy-N-methyl-4-{[3-(4-{[(1R,4R)-4-{2-oxa-6-azaspiro[3.3]heptan-6-yl}cyclohexyl]amino}-1-(2,2,2-trifluoroethyl)-1H-indol-2-yl)prop-2-yn-1-yl]amino}benzamide]", "SC150 (concentration of the compound required to increase the DNA binding activity by 50%)": "+ (+ = 0 μM ≤ SC150 < 0.05 μM)"}
{"smiles": "COc1cc(C(F)(F)F)ccc1NCC#Cc1cc2c(N[C@H]3CC[C@H](N4CC5(COC5)C4)CC3)cccc2n1CC(F)(F)F", "note": "[Compound 277A, 2-(3-{[2-methoxy-4-(trifluoromethyl)phenyl]amino}prop-1-yn-1-yl)-N-[(1R,4R)-4-{2-oxa-6-azaspiro[3.3]heptan-6-yl}cyclohexyl]-1-(2,2,2-trifluoroethyl)-1H-indol-4-amine]", "SC150 (concentration of the compound required to increase the DNA binding activity by 50%)": "++ (++ = 0.05 μM ≤ SC150 < 0.1 μM)"}
{"smiles": "COc1cc(C(=O)O)ccc1NCC#Cc1cc2c(N[C@H]3CC[C@H](N4CC5(COC5)C4)CC3)cccc2n1CC(F)(F)F", "note": "[Compound 279A, 4-((3-(4-(((1R,4R)-4-(2-oxa-6-azaspiro[3.3]heptan-6-yl)cyclohexyl)amino)-1-(2,2,2-trifluoroethyl)-1H-indol-2-yl)prop-2-yn-1-yl)amino)-3-methoxybenzoic acid]", "SC150 (concentration of the compound required to increase the DNA binding activity by 50%)": "+ (+ = 0 μM ≤ SC150 < 0.05 μM)"}
{"smiles": "COc1cc(C(=O)O)c(F)cc1NCC#Cc1cc2c(N[C@H]3CC[C@H](N4CC5(COC5)C4)CC3)cccc2n1CC(F)(F)F", "note": "[Compound 281A, 2-fluoro-5-methoxy-4-{[3-(4-{[(1R,4R)-4-{2-oxa-6-azaspiro[3.3]heptan-6-yl}cyclohexyl]amino}-1-(2,2,2-trifluoroethyl)-1H-indol-2-yl)prop-2-yn-1-yl]amino}benzoic acid]", "SC150 (concentration of the compound required to increase the DNA binding activity by 50%)": "+ (+ = 0 μM ≤ SC150 < 0.05 μM)"}
{"smiles": "Cc1cc(S(C)(=O)=O)ccc1NCC#Cc1cc2c(N[C@H]3CC[C@H](N4CC5(COC5)C4)CC3)cccc2n1CC(F)(F)F", "note": "[Compound 283A, 2-{3-[(4-methanesulfonyl-2-methylphenyl)amino]prop-1-yn-1-yl}-N-[(1R,4R)-4-{2-oxa-6-azaspiro[3.3]heptan-6-yl}cyclohexyl]-1-(2,2,2-trifluoroethyl)-1H-indol-4-amine]", "SC150 (concentration of the compound required to increase the DNA binding activity by 50%)": "+ (+ = 0 μM ≤ SC150 < 0.05 μM)"}
{"smiles": "CS(=O)(=O)c1ccc(NCC#Cc2cc3c(N[C@H]4CC[C@H](N5CC6(COC6)C5)CC4)cccc3n2CC(F)(F)F)c(OC(F)(F)F)c1", "note": "[Compound 285A, 2-(3-{[4-methanesulfonyl-2-(trifluoromethoxy)phenyl]amino}prop-1-yn-1-yl)-N-[(1R,4R)-4-{2-oxa-6-azaspiro[3.3]heptan-6-yl}cyclohexyl]-1-(2,2,2-trifluoroethyl)-1H-indol-4-amine]", "SC150 (concentration of the compound required to increase the DNA binding activity by 50%)": "+ (+ = 0 μM ≤ SC150 < 0.05 μM)"}
{"smiles": "CS(=O)(=O)c1ccc(NCC#Cc2cc3c(N[C@H]4CC[C@H](N5CC6(COC6)C5)CC4)cccc3n2CC(F)(F)F)c(C(F)(F)F)c1", "note": "[Compound 287A, 2-(3-{[4-methane-sulfonyl-2-(trifluoro-methyl)phenyl]amino}prop-1-yn-1-yl)-N-[(1R,4R)-4-{2-oxa-6-azaspiro[3,3]heptan-6-yl}cyclohexyl]-1-(2,2,2-trifluoroethyl)-1H-indol-4-amine]", "SC150 (concentration of the compound required to increase the DNA binding activity by 50%)": "+ (+ = 0 μM ≤ SC150 < 0.05 μM)"}
{"smiles": "CS(=O)(=O)c1ccc(NCC#Cc2cc3c(N[C@H]4CC[C@H](N5CC6(COC6)C5)CC4)cccc3n2CC(F)(F)F)c(Cl)c1", "note": "[Compound 289A, 2-{3-[(2-chloro-4-methanesulfonyl-phenyl)amino]prop-1-yn-1-yl}-N-[(1R,4R)-4-{2-oxa-6-azaspiro[3.3]heptan-6-yl}cyclo-hexyl]-1-(2,2,2-trifluo-roethyl)-1H-indol-4-amine]", "SC150 (concentration of the compound required to increase the DNA binding activity by 50%)": "+ (+ = 0 μM ≤ SC150 < 0.05 μM)"}
{"smiles": "COc1cc(S(C)(=O)=O)ccc1NCC#Cc1cc2c(N[C@H]3CC[C@@H](N4CC5(CCOCC5)C4)CC3)cccc2n1CC(F)(F)F", "note": "[Compound 293A, 2-{3-[(4-methane-sulfonyl-2-methoxy-phenyl)amino]prop-1-yn-1-yl}-N-[(1S,4S)-4-{7-oxa-2-azaspiro[3.5]nonan-2-yl}cyclo-hexyl]-1-(2,2,2-trifluoro-ethyl)-1H-indol-4-amine]", "SC150 (concentration of the compound required to increase the DNA binding activity by 50%)": "+ (+ = 0 μM ≤ SC150 < 0.05 μM)"}
{"smiles": "COc1cc(S(C)(=O)=O)ccc1NCC#Cc1cc2c(N[C@H]3CC[C@H](N4CC5(CCOCC5)C4)CC3)cccc2n1CC(F)(F)F", "note": "[Compound 294A, 2-{3-[(4-methane-sulfonyl-2-methoxy-phenyl)amino]prop-1-yn-1-yl}-N-[(1R,4R)-4-{7-oxa-2-azaspiro[3.5]nonan-2-yl}cyclo-hexyl]-1-(2,2,2-trifluoro-ethyl)-1H-indol-4-amine]", "SC150 (concentration of the compound required to increase the DNA binding activity by 50%)": "+ (+ = 0 μM ≤ SC150 < 0.05 μM)"}
{"smiles": "CNC(=O)c1ccc(NCC#Cc2cc3c(N[C@H]4CC[C@H](N5CC6(CCOCC6)C5)CC4)cccc3n2CC(F)(F)F)c(OC)c1", "note": "[Compound 295A, 3-methoxy-N-methyl-4-{[3-(4-{[(1R,4R)-4-{7-oxa-2-azaspiro[3.5]nonan-2-yl}cyclo-hexyl]amino}-1-(2,2,2-trifluoroethyl)-1H-indol-2-yl)prop-2-yn-1-yl]amino}benzamide]", "SC150 (concentration of the compound required to increase the DNA binding activity by 50%)": "+ (+ = 0 μM ≤ SC150 < 0.05 μM)"}
{"smiles": "CNC(=O)c1ccc(NCC#Cc2cc3c(N[C@H]4CC[C@@H](N5CC6(CCOCC6)C5)CC4)cccc3n2CC(F)(F)F)c(OC)c1", "note": "[Compound 296A, 3-methoxy-N-methyl-4-{[3-(4-{[(1S,4S)-4-{7-oxa-2-azaspiro[3.5]nonan-2-yl}cyclohexyl]amino}-1-(2,2,2-trifluoroethyl)-1H-indol-2-yl)prop-2-yn-1-yl]amino} benzamide]", "SC150 (concentration of the compound required to increase the DNA binding activity by 50%)": "+ (+ = 0 μM ≤ SC150 < 0.05 μM)"}
{"smiles": "COc1cc(S(N)(=O)=O)ccc1NCC#Cc1cc2c(N[C@H]3CC[C@H](N4CC5(CCOCC5)C4)CC3)cccc2n1CC(F)(F)F", "note": "[Compound 297A, 3-methoxy-4-{[3-(4-{[(1R,4R)-4-{7-oxa-2-azaspiro[3.5]nonan-2-yl}cyclohexyl]amino}-1-(2,2,2-trifluoroethyl)-1H-indol-2-yl)prop-2-yn-1-yl]amino}benzene-1-sulfonamide]", "SC150 (concentration of the compound required to increase the DNA binding activity by 50%)": "+ (+ = 0 μM ≤ SC150 < 0.05 μM)"}
{"smiles": "COc1cc(S(N)(=O)=O)ccc1NCC#Cc1cc2c(N[C@H]3CC[C@@H](N4CC5(CCOCC5)C4)CC3)cccc2n1CC(F)(F)F", "note": "[Compound 298A, 3-methoxy-4-{[3-(4-{[(1S,4S)-4-{7-oxa-2-azaspiro[3.5]nonan-2-yl}cyclohexyl]amino}-1-(2,2,2-trifluoroethyl)-1H-indol-2-yl)prop-2-yn-1-yl]amino}benzene-1-sulfonamide]", "SC150 (concentration of the compound required to increase the DNA binding activity by 50%)": "+ (+ = 0 μM ≤ SC150 < 0.05 μM)"}
{"smiles": "N#CCOc1cc(S(N)(=O)=O)ccc1NCC#Cc1cc2c(N[C@H]3CC[C@H](N4CC5(CCOCC5)C4)CC3)cccc2n1CC(F)(F)F", "note": "[Compound 299A, 3-(cyanomethoxy)-4-{[3-(4-{[(1R,4R)-4-{7-oxa-2-azaspiro[3.5]nonan-2-yl}cyclo-hexyl]amino}-1-(2,2,2-trifluoroethyl)-1H-indol-2-yl)prop-2-yn-1-yl]amino}benzene-1-sulfonamide]", "SC150 (concentration of the compound required to increase the DNA binding activity by 50%)": "+ (+ = 0 μM ≤ SC150 < 0.05 μM)"}
{"smiles": "N#CCOc1cc(S(N)(=O)=O)ccc1NCC#Cc1cc2c(N[C@H]3CC[C@@H](N4CC5(CCOCC5)C4)CC3)cccc2n1CC(F)(F)F", "note": "[Compound 300A, 3-(cyanomethoxy)-4-{[3-(4-{[(1S,4S)-4-{7-oxa-2-azaspiro[3.5]nonan-2-yl}cyclo-hexyl]amino}-1-(2,2,2-trifluoroethyl)-1H-indol-2-yl)prop-2-yn-1-yl]amino}benzene-1-sulfonamide]", "SC150 (concentration of the compound required to increase the DNA binding activity by 50%)": "+ (+ = 0 μM ≤ SC150 < 0.05 μM)"}
